Results published in patent publication EP4389106A1, “METHOD OF PREPARATION OF LIPOSOMAL C[…] […] AND LIPOSOMAL C[…] […]” (Aero-Bw K. Domagala Sp. Jawna, priority 2022, dated 2024).
Several values for one entry are separate records, joined by “and”; a condition that tells them apart may be missing. Identical values can stand only once.

Tested on: Salmonella typhimurium TA98
Experiment: Ames test, strain TA98 (reading frame shift)
Assay type: cell-based
Details: positive control at 2 µg/mL
Method: The aim of the study was to assess the mutagenic potential of three extracts obtained from stem cells using two strains of Salmonella typhimurium carrying two types of mutations: TA 98-reading frame shift and TA 100-base pair substitution.
The experimental procedure was carried out basing on the manufacturer's experimental protocol (Xenometrix).

O=[N+]([O-])c1ccc2c(c1)Cc1ccccc1-2 [Extract 2-NF, 2-nitrofluorene] was tested. Which “MOI (Multiplicity of induction compared to baseline)” value did it give?
The value was 6.9 and 5.6.
